Assay results from patent US9493466B2, “Treatment of cancer with TOR kinase inhibitors” (Signal Pharmaceuticals, LLC, priority 2011, dated 2016).

Key:
Assay in all cases: Growth inhibition assay for NHL lines
Format in all cases: cell-based
DOHH-2 = details: DOHH-2, NHL FL, 96 hours, n ≧ 3
Protocol: (§1) Growth Inhibition Assay for HCC and NHL Lines. The seeding density for each cell line was optimized to ensure assay linearity in 384-well plates.
(§2) Compound 1 was dissolved in dimethyl sulfoxide (DMSO) to prepare a 10 mM stock solution. A serial titration was performed to produce a working concentration range of […] to 10 mM. Aliquots to produce final concentrations of 1.5 nM to 10 μM were spotted via an acoustic dispenser (EDC ATS-100) into an empty 384-well plate. Compound 1 was spotted in a 10-point serial dilution fashion (3-fold dilution) in duplicate within the plate. The DMSO concentration was kept constant for a final assay concentration of 0.1% DMSO. Plates were replicated for use with different cell lines and testing periods. After compound plate replication, all plates were sealed (Agilent ThermoLoc) and stored at −20° C. for up to 1 month. […] When ready for testing, plates were removed from the freezer, thawed, and unsealed just prior to the addition of the test cells. Prior to testing, cells were grown and expanded in culture flasks to provide sufficient amounts of starting material. Cells were then diluted to the appropriate densities and added directly to the compound-spotted 384-well plates. Cells were allowed to grow for 96 hours at 37° C./5% CO2. At the time when compound was added (t0), initial cell number was assessed via a viability assay (Cell Titer-Glo) by quantifying the level of luminescence generated by ATP present in viable cells. After 96 hours, cell viability of compound-treated cells was assessed via Cell Titer-Glo and luminescence measurement. Cell lines were assayed for growth inhibition by Compound 1 in at least 3 independent tests. A control cell line (the lung tumor cell line, A549) was included in each of the assays. The compound response against this control cell line was monitored closely to enable comparison of the data generated through the assay period. All data were normalized and presented as a percentage of the DMSO-treated cells. Results were then expressed as a GI50 value. The GI50 value corrects for the cell count at time zero. In addition, the IC50 value of Compound 1 for each cell line was calculated.

REC-1 = details: REC-1, NHL MCL, 96 hours, n ≧ 3
Protocol: as §1, §2

JVM-13 = details: JVM-13, NHL MCL, 96 hours, n ≧ 3
Protocol: as §1, §2

OCI-LY-19 = details: OCI-LY-19, NHL DLBCL, 96 hours, n ≧ 3
Protocol: as §1, §2

OCI-LY-7 = details: OCI-LY-7, NHL DLBCL, 96 hours, n ≧ 3
Protocol: as §1, §2

HT = details: NHL DLBCL, 96 hours, n ≧ 3
Protocol: as §1, §2

SU-DHL-6 = details: SU-DHL-6, NHL DLBCL, 96 hours, n ≧ 3
Protocol: as §1, §2

HL-60 = details: HL-60, Leukemia M-AML, 96 hours, n ≧ 3
Protocol: as §1, §2

SU-DHL-4 = details: SU-DHL-4, NHL DLBCL, 96 hours, n ≧ 3
Protocol: as §1, §2

RIVA = details: NHL DLBCL, 96 hours, n ≧ 3
Protocol: as §1, §2

WSU-DLCL2 = details: WSU-DLCL2, NHL DLBCL, 96 hours, n ≧ 3
Protocol: as §1, §2

Farage = details: NHL DLBCL, 96 hours, n ≧ 3
Protocol: as §1, §2

KARPAS-1106P = details: NHL DLBCL, 96 hours, n ≧ 3
Protocol: as §1, §2

Toledo = details: NHL DLBCL, 96 hours, n ≧ 3
Protocol: as §1, §2

JVM-2 = details: JVM-2, NHL MCL, 96 hours, n ≧ 3
Protocol: as §1, §2

OCI-LY-10 = details: OCI-LY-10, NHL DLBCL, 96 hours, n ≧ 3
Protocol: as §1, §2

NU-DHL-1 = details: NU-DHL-1, NHL DLBCL, 96 hours, n ≧ 3
Protocol: as §1, §2

U-2932 = details: U-2932, NHL DLBCL, 96 hours, n ≧ 3
Protocol: as §1, §2

WSU-FSCCL = details: NHL FL, 96 hours, n ≧ 3
Protocol: as §1, §2

SU-DHL-16 = details: SU-DHL-16, NHL DLBCL, 96 hours, n ≧ 3
Protocol: as §1, §2

THP-1 = details: THP-1, Leukemia M-AML, 96 hours, n ≧ 3
Protocol: as §1, §2

WSU-NHL = details: NHL FL, 96 hours, n ≧ 3
Protocol: as §1, §2

SU-DHL-10 = details: SU-DHL-10, NHL DLBCL, 96 hours, n ≧ 3
Protocol: as §1, §2

Granta-519 = details: Granta-519, NHL MCL, 96 hours, n ≧ 3
Protocol: as §1, §2

KASUMI-1 = details: KASUMI-1, Leukemia M-AML, 96 hours, n ≧ 3
Protocol: as §1, §2

`CO[C@H]1CC[C@H](N2C(=O)CNc3ncc(-c4ccc(C(C)(C)O)nc4)nc32)CC1` [Compound 1, 7-(6-(2-hydroxypropan-2-yl)pyridin-3-yl)-1-((1r,4r)-4-methoxycyclohexyl)-3,4-dihydropyrazino-[2,3-b]pyrazin-2(1H)-one] gave a GI50 (DOHH-2) of 130 ± 20 nM, an IC50 (DOHH-2) of 160 ± 30 nM and a GI50 (REC-1) of 200 ± 40 nM. It also gave an IC50 (REC-1) of 260 ± 50 nM, a GI50 (JVM-13) of 1770 ± 1610 nM and an IC50 (JVM-13) of 3490 ± 2480 nM. It also gave a GI50 (OCI-LY-19) of 220 ± 60 nM, an IC50 (OCI-LY-19) of 350 ± 80 nM and a GI50 (OCI-LY-7) of 190 ± 30 nM. The IC50 (OCI-LY-7) was 250 ± 30 nM, the GI50 (HT) was 110 ± 40 nM and the IC50 (HT) was 170 ± 50 nM. For the same compound, the GI50 (SU-DHL-6) was 160 ± 40 nM, the IC50 (SU-DHL-6) was 200 ± 60 nM and the GI50 (HL-60) was 240 ± 60 nM. The IC50 (HL-60) was 380 ± 130 nM, the GI50 (SU-DHL-4) was 110 ± 40 nM and the IC50 (SU-DHL-4) was 120 ± 50 nM. It also gave a GI50 (RIVA) of 20 ± 10 nM, an IC50 (RIVA) of 100 ± 50 nM and a GI50 (WSU-DLCL2) of 90 ± 20 nM. For the same compound, the IC50 (WSU-DLCL2) was 90 ± 20 nM, the GI50 (Farage) was 270 ± 30 nM and the IC50 (Farage) was 280 ± 40 nM. The GI50 (KARPAS-1106P) was 70 ± 30 nM, the IC50 (KARPAS-1106P) was 70 ± 30 nM and the GI50 (Toledo) was 70 ± 20 nM. It also gave an IC50 (Toledo) of 440 ± 20 nM, a GI50 (JVM-2) of 260 ± 50 nM and an IC50 (JVM-2) of 440 ± 180 nM. The GI50 (OCI-LY-10) was 140 ± 40 nM, the IC50 (OCI-LY-10) was 190 ± 40 nM and the GI50 (NU-DHL-1) was 80 ± 30 nM. For the same compound, the IC50 (NU-DHL-1) was 110 ± 50 nM, the GI50 (U-2932) was 300 ± 30 nM and the IC50 (U-2932) was 450 ± 10 nM. For the same compound, the GI50 (WSU-FSCCL) was 160 ± 40 nM, the IC50 (WSU-FSCCL) was 190 ± 40 nM and the GI50 (SU-DHL-16) was 110 ± 20 nM. It also gave an IC50 (SU-DHL-16) of 110 ± 20 nM, a GI50 (THP-1) of 230 ± 110 nM and an IC50 (THP-1) of 570 ± 160 nM. For the same compound, the GI50 (WSU-NHL) was 50 nM, the IC50 (WSU-NHL) was 70 nM and the GI50 (SU-DHL-10) was 200 ± 20 nM. For the same compound, the IC50 (SU-DHL-10) was 200 ± 30 nM, the GI50 (Granta-519) was 380 ± 80 nM and the IC50 (Granta-519) was 960 ± 100 nM. It also gave a GI50 (KASUMI-1) of 40 ± 20 nM and an IC50 (KASUMI-1) of 120 ± 30 nM.
